From article PMC6505672, “Conformational change of Sos-derived proline-rich peptide upon binding Grb2 N-terminal SH3 domain probed by NMR” (Scientific Reports, 2013)
Where “and” joins values, the source holds several entries; their conditions need not be identical. Equal entries are not always repeated.

How the values were obtained:
[1] = biological target: Sos-derived VPP peptide (Homo sapiens) (UniProt Q07889); details: cited from earlier work
[2] = biological target: T1, Grb2 N-terminal SH3 (nSH3) domain (Homo sapiens, UniProt P62993); assay: Minor (cis Xaa-Pro) peaks in 1H-13Cα HSQC, Grb2 nSH3-bound state; format: physicochemical; details: PBS in 2H2O, 25°C
T1 construct: The plasmid to express the Grb2 nSH3 domain (residues 1–57) was constructed by using a pGEX-6P expression vector; GST (N, cleaved yes); made in house; host or cells: E. coli BL21 (DE3)
T1 sequence (P62993 1-57): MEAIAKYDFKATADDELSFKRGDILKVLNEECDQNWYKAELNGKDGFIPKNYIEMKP
Experimental: The relative intensities of the minor peaks with respect to the major peaks for these residues were 10% for Val1, 3% for Pro2, 14% for Pro4, 10% for Val5, and 6% for Pro6.
The buffer system for NMR experiments was PBS in ^2H2O. […] Data were processed using the NMRPipe/NMRDraw software package. Peak picking and spectral analysis were performed using the Sparky program. Conformational analyses based on chemical shifts were conducted using the Random Coil Index (RCI) program[19] on the web server (http://randomcoilindex.com/).

[3] = set-up: method as in earlier work; details: free state, cited from earlier work
[4] = biological target: T1, Grb2 N-terminal SH3 (nSH3) domain; assay: 13Cα CPMG relaxation dispersion of VPP peptide with Grb2 nSH3; format: binding
Experimental: Non-labelled VPP (10 mM) peptide mixed with 0.25 mM Grb2 nSH3 dissolved in ^2H2O solvent was subjected to ^13Cα relaxation dispersion experiments.
The global exchange parameters of the exchange rate, kex; the fractional population of the minor state, Pb were calculated from the dispersion curves of Val5 and Arg8. Then, the chemical shift difference between two states, Δω; the target function of fitting error, χ^2; and the nonexchangeable contribution of R2,eff, R2,0 for each residue were calculated using the global exchange parameters based on a two-state exchange model. […] The exchange rate kex is defined as kex = kon[P] + koff, where [P] is the concentration of the protein. In this experimental condition, [P] is assumed to be zero because the concentration of the ligand is much higher than that of the protein. Thus, kex = koff. The affinity of the ligand to the protein, i.e., Kd, is defined as Kd = koff/kon. If kon is diffusion-controlled, kon ~ 10^8 M^−1s^−1. […] However, as reported by Lundström et al. Cα and Cβ atoms of valine are simultaneously incorporated to the final products from [^13C-2]-glucose as a sole carbon source by using an E.coli expression system. Thus, isolated ^13Cα-selective labelled valine residues cannot be prepared for this experimental purpose.
Two-dimensional ^1H-^13C correlated spectra were collected as series of data sets with CPMG frequencies (νCPMG) of 30, 60, 120, 180, 300, 450, and 600 Hz. The constant-time relaxation delay Trelax was set to 66.7 ms. Spectra were recorded as 62 × 600 complex points with a 2.6-s repetition delay and 32 scans for each increment. The total experimental time was 24 h for both 600 and 500 MHz spectrometers.
Peak intensities of the ^13Cα relaxation dispersion data were quantified using the Sparky program. The transverse relaxation constant, R2,eff, for each νCPMG frequency was calculated as R2,eff = −ln(I(νCPMG)/I0)/Trelax, where I(νCPMG) is the peak intensity obtained for a given value of νCPMG and I0 is the peak intensity obtained when the CPMG block is omitted. The CPMG dispersion curves were fitted numerically as a two-state exchange model using an in-house program described elsewhere. The fitting calculation extracted the following terms as the global parameters: the exchange rate, kex; the fractional population of the minor state, Pb; and the residue specific parameters, including the magnitude of the chemical shift difference between two states, Δω; the target function of fitting error, χ^2; and the nonexchangeable contribution of R2,eff, R2,0.

[5] = 13Cα CPMG relaxation dispersion of free VPP peptide (Grb2 nSH3 absent); format: physicochemical; details: 25°C
Experimental: The global exchange parameters of the exchange rate, kex; the fractional population of the minor state, Pb were calculated from the dispersion curves of Val5 and Arg8. Then, the chemical shift difference between two states, Δω; the target function of fitting error, χ^2; and the nonexchangeable contribution of R2,eff, R2,0 for each residue were calculated using the global exchange parameters based on a two-state exchange model. […] The kex values were slightly larger than the Δω values, indicating a fast or intermediate exchange process on the chemical shift time scale. The exchange rate kex is defined as kex = kon[P] + koff, where [P] is the concentration of the protein. […]
Two-dimensional ^1H-^13C correlated spectra were collected as series of data sets with CPMG frequencies (νCPMG) of 30, 60, 120, 180, 300, 450, and 600 Hz. […] Spectra were recorded as 62 × 600 complex points with a 2.6-s repetition delay and 32 scans for each increment. […]
Peak intensities of the ^13Cα relaxation dispersion data were quantified using the Sparky program. The transverse relaxation constant, R2,eff, for each νCPMG frequency was calculated as R2,eff = −ln(I(νCPMG)/I0)/Trelax, where I(νCPMG) is the peak intensity obtained for a given value of νCPMG and I0 is the peak intensity obtained when the CPMG block is omitted. […]

[6] = system: Grb2 nSH3; details: single alanine substitution, ITC; cited from earlier work

Chain of Grb2 nSH3 (from UniProt P62993) (P62993 1-58): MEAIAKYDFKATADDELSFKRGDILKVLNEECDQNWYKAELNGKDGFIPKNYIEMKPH

Compound	Kd [1] [µM]	minor (cis) peaks in bound state [2]	PPII helix structure ([3]; NMR and circular dichroism)	minor (cis) conformation [3] [%]	population of the minor state (Pb), in percent ([4]; 10 mM peptide, 0.25 mM Grb2 nSH3, 25°C, bound population expected from sample 2.5%)	exchange rate, kex ([4]; global fit of Val5 and Arg8, two-state exchange model, 10 mM VPP peptide, 0.25 mM Grb2 nSH3, PBS in 2H2O, 25°C, 11.7 and 14.1 T, kex = koff assumed) [s⁻¹]	fractional population of the minor state, Pb ([4]; global fit of Val5 and Arg8, two-state model, 10 mM peptide, 0.25 mM Grb2 nSH3, 25°C, as fraction)	significant relaxation dispersion ([4]; presence of Grb2 nSH3, 11.7 and 14.1 T, 25°C)	Δω ([4]; range over all residues, 13Cα, relaxation dispersion)	Δω ([4]; residue P3, 13Cα shift difference between two states from relaxation dispersion fit, 25°C) [ppm]	Δω ([4]; residue R8, 13Cα shift difference between two states from relaxation dispersion fit, 25°C)	Δω ([4]; residue R9, 13Cα shift difference between two states from relaxation dispersion fit, 25°C) [ppm]	Δω ([4]; residue R10, 13Cα shift difference between two states from relaxation dispersion fit, 25°C) [ppm]	Δω ([4]; residue V5, 13Cα shift difference between two states from relaxation dispersion fit, 25°C)	Δω ([4]; residues P4/P7 (overlapped), 13Cα shift difference between two states from relaxation dispersion fit, 25°C) [ppm]	relaxation dispersion curves [5]	residues critical for interaction with Grb2 nSH3 [6]
Grb2 nSH3 (from UniProt P62993)	3.5	–	–	–	–	–	–	–	–	–	–	–	–	–	–	–	–
CC(C)C[C@H](NC(=O)[C@@H]1CCCN1C(=O)CN)C(=O)NCC(=O)N[C@@H](CO)C(=O)N[C@H](C(=O)N1CCC[C@H]1C(=O)N1CCC[C@H]1C(=O)N1CCC[C@H]1C(=O)N[C@H](C(=O)N1CCC[C@H]1C(=O)N1CCC[C@H]1C(=O)N[C@@H](CCCNC(=N)N)C(=O)N[C@@H](CCCNC(=N)N)C(=O)N[C@@H](CCCNC(=N)N)C(=O)O)C(C)C)C(C)C [VPP peptide]	–	lack of minor peaks in the bound state	~ 60%	9	~ 2.6%	1037.87	0.026	Significant dispersion was only observed for Val5 and Arg8 and not for the other residues	0–1.5 ppm	0.09 ± 0.18	1.53 ppm and 1.53 ± 0.42 ppm	0.23 ± 0.20	0.13 ± 0.17	1.47 ppm and 1.47 ± 0.52 ppm	0.00 ± 0.16	the dispersion curves were flat	Pro3, Val5, Pro6, and Arg8 of the VPP peptide are critical for interaction with Grb2 nSH3
